Laboratory results: paper PMC9557946, “Intermittent MEK inhibition for the treatment of metastatic uveal melanoma” (Frontiers in Oncology, 2022)

System: metastatic uveal melanoma
Test: Phase Ib trial of intermittent selumetinib: clinical efficacy (RECIST v1.1, PFS, OS)
Assay type: in vivo, human
Text: This was a multi-center, open-label, phase Ib study conducted at Columbia University Irving Medical Center (New York, NY), University of Texas MD Anderson Cancer Center (Houston, TX), and Memorial Sloan Kettering Cancer Center (New York, NY). The primary objective of this study was to determine the maximum tolerated dose (MTD) of selumetinib administered using an intermittent dosing schedule in patients with metastatic UM. […] Exploratory objectives included pharmacodynamic (PD) assessment of target inhibition of the MEK pathway.
Descriptive statistics were used to report baseline characteristics of the study population. The observed rate and estimated rate of DLT were reported for each dose level along with the 90% probability interval. The number and percentage of patients with adverse events were summarized taking the highest grade and reported by grade for AEs that were at least possibly related to treatment. AEs with at prevalence of least 10% were reported separately. The overall response rate (ORR) was defined as a confirmed complete response (CR) or partial response (PR) according to RECIST 1.1 criteria ([18]) and reported by dose level. Disease control rate (DCR) was defined as the percentage of patients with a confirmed CR, PR or stable disease. PFS was measured from date of enrollment until the date of progression or death, whichever occurred first. OS was defined as the time from the date of registration to the date of death by any cause.
Imaging was obtained at baseline, at 8 weeks after start of study treatment, and then every 8 weeks thereafter. Imaging of the chest, abdomen, and pelvis was required at each time point, with contrast enhanced MRI of the liver performed whenever possible. Response was assessed using RECIST v.1.1 criteria by investigator assessment. Criteria for removal from study included radiographic or clinical disease progression, or unacceptable toxicity.

[1] = All Levels, investigator assessed RECIST v1.1
[2] = Level 1 (100 mg BID), investigator assessed RECIST v1.1
[3] = Level 2 (125 mg BID), investigator assessed RECIST v1.1
[4] = Level 3 (150 mg BID), investigator assessed RECIST v1.1
[5] = Level 4 (175 mg BID), investigator assessed RECIST v1.1

Structure (SMILES): Cn1cnc2c(F)c(Nc3ccc(Br)cc3Cl)c(C(=O)NOCCO)cc21 [selumetinib]
- median PFS (125mg twice daily cohort): 1.7 months
- Complete Response (CR) [1]: 0
- Partial Response (PR) [1]: 0
- Median duration of Stable Disease (Level 1 (100 mg BID)): 7.1 months
- Complete Response (CR) [2]: 0
- Overall Response Rate (ORR) [2]: 0
- Partial Response (PR) [2]: 0
- Median Time to Progression (range) (Level 1 (100 mg BID), range 1.2-10.8): 3.4 months (1.2-10.8)
- Median duration of Stable Disease (Level 2 (125 mg BID)): 4.1 months
- Complete Response (CR) [3]: 0
- Overall Response Rate (ORR) [3]: 0
- Partial Response (PR) [3]: 0
- Median Time to Progression (range) (Level 2 (125 mg BID), range 0.9-5.5): 1.7 months (0.9-5.5)
- Median duration of Stable Disease (Level 3 (150 mg BID)): 4.9 months
- Complete Response (CR) [4]: 0
- Overall Response Rate (ORR) [4]: 0
- Partial Response (PR) [4]: 0
- Median Time to Progression (range) (Level 3 (150 mg BID), range 0.9-6.2): 3.7 months (0.9-6.2)
- Complete Response (CR) [5]: 0
- Overall Response Rate (ORR) [5]: 0
- Partial Response (PR) [5]: 0
- Progressive Disease (PD), patients/total (%) [5]: 0
- ORR (all 29 patients, RECIST v1.1): 0%
- best response of stable disease, percent of patients (at 8 weeks from treatment initiation, n=11 of 29): 38%
- median progression-free response by cohort (range across dose cohorts): 1.7-3.7 months
- median PFS (total population (29 patients), 95% CI 1.7, 4.5): 1.8 months
- median OS (total population (29 patients), 95% CI 5.3, 11.5): 7.1 months
